Literature values as cited in PMC3547486 (ACS Chemical Neuroscience, 2012).

Tested on: 5-HT release

Clc1cccc(N2CCNCC2)c1 [mCPP, m-chlorophenylpiperazine]
5-HT releasing activity (in words): potent 5-HT releaser
